From patent publication US12172983B2, “EGFR inhibitors” (Blueprint Medicines Corporation, priority 2019, dated 2024)
Like-named read-outs stand apart in the source and are kept apart here.

Experiments:
EGFR (L858R T790M C797S) = molecular target: T1, EGFR (L858R T790M C797S) (Homo sapiens, UniProt P00533, C797S/L858R/T790M); assay: Biochemical EGFR inhibition assay (Caliper mobility shift), EGFR LRTMCS mutant; conditions: inhibitory activity against EGFR LRTMCS mutant; apparent IC50; read-out: Ext Enz LRTMCS
T1 construct: purchased SignalChem E10-122VG
Protocol: Reactions proceeded until between 10% to 20% total peptides were phosphorylated at room temperature (25° C.) and were terminated with 35 mM 2,2′,2″,2′″-(ethane-1,2-diyldinitrilo)tetraacetic acid (EDTA). Product was detected using the Caliper mobility shift detection method where the phosphorylated peptide (product) and substrate were electrophoretically separated and measured. Percent activity was plotted against log concentration of compound and points to generate an apparent IC50.

[1] = tested on: phosphorylation of EGFR (Tyr1068) in NCI-H1975 cell line that harbors the EGFR L858R T790M mutations; assay: NCI-H1975 pEGFR AlphaLISA assay; assay type: cell-based; conditions: 4-5 hours incubation, read-out: Ext pEGFR H1975
Protocol: Inhibitory effects of the compounds of the disclosure were evaluated in cellular assays that measure level of intracellular phosphorylation of EGFR in NCI-H1975 cell line that harbors the EGFR L858R T790M mutations (ATCC, CRL-5908) using AlphaLISA sureFire ultra p-EGFR (Tyr1068) assay kit (PerkinElmer, ALSU-PEGFR-A50K). The NCI-H1975 cells were seeded at 12.5K/well in 22 μL into 384 well opti plate (PerkinElmer, 6007299) and adhering overnight at 37 C/5% CO2. On the next day, the test compounds and DMSO control were added into H1975 cell plate followed by incubation at 37 C/5% CO2 for 4-5 hours. The cells were then spin down in the 384-well plate and lysed with 10 μL of 1×AlphaLISA lysis buffer followed by shaking at 600 rpm for 10 minutes at room temperature. After that, 5 μL of an acceptor bead mix was added to each well followed by incubation at room temperature for 1.5-2 h in dark. Then 5 μL of a donor bead mix was added to each well followed by overnight incubation at room temperature in dark. On the next day, the plate was read at a compatible plate reader to obtain pEGFR signal. Percent of pEGFR inhibition was plotted against log concentration of compounds to generate IC50 values.

[2] = Homo sapiens, NCI-H1975, inhibition of phosphorylation of mutant EGFR in NCI-H1975 cells
[3] = inhibition of phosphorylation of mutant EGFR in NCI-H1975 cells

T1 sequence (P00533 25-1210 T790M/C797S/L858R): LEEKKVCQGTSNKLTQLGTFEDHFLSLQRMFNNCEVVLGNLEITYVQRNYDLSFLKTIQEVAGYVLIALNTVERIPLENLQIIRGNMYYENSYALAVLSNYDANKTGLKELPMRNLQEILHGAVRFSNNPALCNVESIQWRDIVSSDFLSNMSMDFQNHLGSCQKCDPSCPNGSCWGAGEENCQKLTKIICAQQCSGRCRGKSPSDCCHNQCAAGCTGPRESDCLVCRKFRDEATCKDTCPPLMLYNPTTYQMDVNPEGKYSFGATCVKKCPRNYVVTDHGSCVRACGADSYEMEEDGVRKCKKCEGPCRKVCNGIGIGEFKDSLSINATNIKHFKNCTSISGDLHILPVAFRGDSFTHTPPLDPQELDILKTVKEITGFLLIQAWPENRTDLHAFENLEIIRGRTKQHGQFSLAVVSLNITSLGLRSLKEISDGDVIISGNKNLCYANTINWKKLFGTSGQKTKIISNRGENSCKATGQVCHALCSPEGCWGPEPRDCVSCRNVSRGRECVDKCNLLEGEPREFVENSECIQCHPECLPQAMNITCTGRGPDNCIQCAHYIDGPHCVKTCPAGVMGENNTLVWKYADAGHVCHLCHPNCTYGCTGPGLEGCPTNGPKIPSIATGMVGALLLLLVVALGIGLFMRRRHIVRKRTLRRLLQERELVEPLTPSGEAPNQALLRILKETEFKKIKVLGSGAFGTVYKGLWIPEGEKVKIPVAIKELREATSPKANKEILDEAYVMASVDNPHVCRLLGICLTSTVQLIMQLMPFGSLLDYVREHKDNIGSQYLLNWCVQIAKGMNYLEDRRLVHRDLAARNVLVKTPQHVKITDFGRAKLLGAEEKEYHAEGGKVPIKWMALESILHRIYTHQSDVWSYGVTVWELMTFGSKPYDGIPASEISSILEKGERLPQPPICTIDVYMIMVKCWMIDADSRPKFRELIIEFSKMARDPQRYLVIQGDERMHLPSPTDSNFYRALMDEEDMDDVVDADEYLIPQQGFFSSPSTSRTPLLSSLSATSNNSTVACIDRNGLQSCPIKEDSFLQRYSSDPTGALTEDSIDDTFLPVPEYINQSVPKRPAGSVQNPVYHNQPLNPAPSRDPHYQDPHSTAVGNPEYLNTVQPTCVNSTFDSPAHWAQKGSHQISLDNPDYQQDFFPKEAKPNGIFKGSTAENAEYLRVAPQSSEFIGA

| SMILES | IC50 (EGFR (L858R T790M C797S)) | IC50 [1, 2] | IC50 [1, 3] |
| --- | --- | --- | --- |
| CO[C@@H]1[C@H](F)CN(c2nccc(Nc3cc4c(C(C)C)ccc(N5C[C@H](CS(C)(=O)=O)[C@H]5C)c4cn3)n2)C[C@@H]1O (single isomer, unassigned) [Compound 202, (3S,4S,5R)-5-fluoro-1-[4-({8-[(2R,3S)-3-(methanesulfonylmethyl)-2-methylazetidin-1-yl]-5-(propan-2-yl)isoquinolin-3-yl}amino)pyrimidin-2-yl]-4-methoxypiperidin-3-ol or (3R,4R,5S)-5-fluoro-1-[4-({8-[(2R,3S)-3-(methanesulfonylmethyl)-2-methylazetidin-1-yl]-5-(propan-2-yl)isoquinolin-3-yl}amino)pyrimidin-2-yl]-4-methoxypiperidin-3-ol] | 0.0201 to 0.03 µM | 0.0101 to 0.02 µM |  |
| CCS(=O)(=O)C[C@H]1CN(c2cccc3cc(Nc4ccnc(N5C[C@@H](F)[C@@H](O)C(C)(C)C5)n4)ncc23)[C@@H]1C (single isomer, unassigned) [Compound 66, (4S,5R)-1-[4-({8-[(2R,3S)-3-[(ethanesulfonyl)methyl]-2-methylazetidin-1-yl]isoquinolin-3-yl}amino)pyrimidin-2-yl]-5-fluoro-3,3-dimethylpiperidin-4-ol or (4R,5S)-1-[4-({8-[(2R,3S)-3-[(ethanesulfonyl)methyl]-2-methylazetidin-1-yl]isoquinolin-3-yl}amino)pyrimidin-2-yl]-5-fluoro-3,3-dimethylpiperidin-4-ol] | ≤ 0.015 µM | ≤ 0.01 µM |  |
| CCS(=O)(=O)CC1CN(c2ccc(OC)c3cc(Nc4ccnc(N5CC[C@@H](O)[C@@](C)(F)C5)n4)ncc23)C1 (single isomer, unassigned) [Compound 77] | 0.0151 to 0.02 µM | 0.0301 to 0.05 µM |  |
| COCCO[C@@H]1CCN(c2nccc(Nc3cc4c(F)ccc(N5C[C@H](CS(C)(=O)=O)[C@H]5C)c4cn3)n2)C[C@@H]1F (single isomer, unassigned) [Compound 217] | ≤ 0.015 µM | 0.0201 to 0.03 µM |  |
| CC(C)c1ccc(N2C[C@H](CS(C)(=O)=O)[C@H]2C)c2cnc(Nc3ccnc(N4CC[C@@H](OCCO)[C@@](C)(F)C4)n3)cc12 (single isomer, unassigned) [Compound 242] | ≤ 0.015 µM | ≤ 0.01 µM |  |
| CCS(=O)(=O)C[C@H]1CN(c2cnc(C(C)C)c3cc(Nc4ccnc(N5CC[C@@](C)(O)C(F)(F)C5)n4)ncc23)[C@@H]1C (single isomer, unassigned) [Compound 231, (4R)-1-[4-({8-[(2R,3S)-3-[(ethanesulfonyl)methyl]-2-methylazetidin-1-yl]-5-(propan-2-yl)-2,6-naphthyridin-3-yl}amino)pyrimidin-2-yl]-3,3-difluoro-4-methylpiperidin-4-ol or (4S)-1-[4-({8-[(2R,3S)-3-[(ethanesulfonyl)methyl]-2-methylazetidin-1-yl]-5-(propan-2-yl)-2,6-naphthyridin-3-yl}amino)pyrimidin-2-yl]-3,3-difluoro-4-methylpiperidin-4-ol] | ≤ 0.015 µM | ≤ 0.01 µM |  |
| CC(C)c1ccc(N2C[C@H](CS(C)(=O)=O)[C@H]2C)c2cnc(Nc3ccnc(N4CC[C@H](N)C(F)(F)C4)n3)cc12 (single isomer, unassigned) [Compound 151, N-{2-[(4S)-4-amino-3,3-difluoropiperidin-1-yl]pyrimidin-4-yl}-8-[(2R,3S)-3-(methanesulfonylmethyl)-2-methylazetidin-1-yl]-5-(propan-2-yl)isoquinolin-3-amine or N-{2-[(4R)-4-amino-3,3-difluoropiperidin-1-yl]pyrimidin-4-yl}-8-[(2R,3S)-3-(methanesulfonylmethyl)-2-methylazetidin-1-yl]-5-(propan-2-yl)isoquinolin-3-amine] | ≤ 0.015 µM | ≤ 0.01 µM |  |
| CC(C)c1ccc(N2CC(CS(=O)(=O)C(F)F)C2)c2cnc(Nc3ccnc(N4CC[C@@H](O)[C@@](C)(F)C4)n3)cc12 (single isomer, unassigned) [Compound 219] | ≤ 0.015 µM | ≤ 0.01 µM |  |
| COC1(CN)CCN(c2nccc(Nc3cc4c(C(C)C)ccc(N5C[C@H](CS(C)(=O)=O)[C@H]5C)c4cn3)n2)CC1 [Compound 169, N-{2-[4-(aminomethyl)-4-methoxypiperidin-1-yl]pyrimidin-4-yl}-8-[(2R,3S)-3-(methanesulfonylmethyl)-2-methylazetidin-1-yl]-5-(propan-2-yl)isoquinolin-3-amine] | 0.0151 to 0.02 µM | 0.0301 to 0.05 µM |  |
| CC(C)c1ccc(N2C[C@H](CS(C)(=O)=O)[C@H]2C)c2cnc(Nc3ccnc(N4CCN(C)CC4)n3)cc12 [Compound 16, 8-[(2R,3S)-3-(methanesulfonylmethyl)-2-methylazetidin-1-yl]-N-[2-(4-methylpiperazin-1-yl)pyrimidin-4-yl]-5-(propan-2-yl)isoquinolin-3-amine] | 0.0201 to 0.03 µM | 0.0101 to 0.02 µM |  |
| CO[C@@H]1[C@H](O)CN(c2nccc(Nc3cc4c(C(C)C)cnc(N5C[C@H](CS(C)(=O)=O)[C@H]5C)c4cn3)n2)CC1(F)F (single isomer, unassigned) [Compound 236, (3S,4S)-5,5-difluoro-1-[4-({8-[(2R,3S)-3-(methanesulfonylmethyl)-2-methylazetidin-1-yl]-5-(propan-2-yl)-2,7-naphthyridin-3-yl}amino)pyrimidin-2-yl]-4-methoxypiperidin-3-ol or (3R,4R)-5,5-difluoro-1-[4-({8-[(2R,3S)-3-(methanesulfonylmethyl)-2-methylazetidin-1-yl]-5-(propan-2-yl)-2,7-naphthyridin-3-yl}amino)pyrimidin-2-yl]-4-methoxypiperidin-3-ol] | ≤ 0.015 µM |  | 0.0101 to 0.02 µM |
| CO[C@@H]1[C@H](O)CN(c2nccc(Nc3cc4c(C(C)C)ncc(N5C[C@H](CS(C)(=O)=O)[C@H]5C)c4cn3)n2)CC1(F)F (single isomer, unassigned) [Compound 233, (3R,4R)-5,5-difluoro-1-[4-({8-[(2R,3S)-3-(methanesulfonylmethyl)-2-methylazetidin-1-yl]-5-(propan-2-yl)-2,6-naphthyridin-3-yl}amino)pyrimidin-2-yl]-4-methoxypiperidin-3-ol or (3S,4S)-5,5-difluoro-1-[4-({8-[(2R,3S)-3-(methanesulfonylmethyl)-2-methylazetidin-1-yl]-5-(propan-2-yl)-2,6-naphthyridin-3-yl}amino)pyrimidin-2-yl]-4-methoxypiperidin-3-ol] | ≤ 0.015 µM | ≤ 0.01 µM |  |
| CCS(=O)(=O)CC1CN(c2ccc(C(C)C)c3cc(Nc4ccnc(N5CC[C@H](OCCO)[C@H](F)C5)n4)ncc23)C1 [Compound 293, 2-{[(3R,4S)-1-{4-[(8-{3-[(ethanesulfonyl)methyl]azetidin-1-yl}-5-(propan-2-yl)isoquinolin-3-yl)amino]pyrimidin-2-yl}-3-fluoropiperidin-4-yl]oxy}ethan-1-ol] | ≤ 0.015 µM | ≤ 0.01 µM |  |
| CO[C@H]1CCN(c2nncc(Nc3cc4c(C(C)C)ccc(N5CC(CS(C)(=O)=O)C5)c4cn3)n2)C[C@H]1F [Compound 76, N-{3-[(3R,4S)-3-fluoro-4-methoxypiperidin-1-yl]-1,2,4-triazin-5-yl}-8-[3-(methanesulfonylmethyl)azetidin-1-yl]-5-(propan-2-yl)isoquinolin-3-amine] | ≤ 0.015 µM | ≤ 0.01 µM |  |
| CO[C@H]1CCN(c2nccc(Nc3cc4c(C(C)C)cnc(N5CC(C[S@@](C)(=N)=O)[C@H]5C)c4cn3)n2)C[C@H]1F (single isomer, unassigned) [Compound 108, (1S)-(((2R)-1-(6-((2-((3R,4S)-3-fluoro-4-methoxypiperidin-1-yl)pyrimidin-4-yl)amino)-4-isopropyl-2,7-naphthyridin-1-yl)-2-methylazetidin-3-yl)methyl)(imino)(methyl)-λ^6-sulfanone or (1R)-(((2R)-1-(6-((2-((3R,4S)-3-fluoro-4-methoxypiperidin-1-yl)pyrimidin-4-yl)amino)-4-isopropyl-2,7-naphthyridin-1-yl)-2-methylazetidin-3-yl)methyl)(imino)(methyl)-λ^6-sulfanone] | ≤ 0.015 µM |  | ≤ 0.01 µM |
| CO[C@@H]1CCN(c2nccc(Nc3cc4c(C(C)C)ccc(N5CC(CS(C)(=O)=O)C5)c4cn3)n2)C[C@@H]1O (single isomer, unassigned) [Compound 52, (3S,4R)-1-(4-(5-isopropyl-8-(3-(methylsulfonylmethyl)azetidin-1-yl)isoquinolin-3-ylamino)pyrimidin-2-yl)-4-methoxypiperidin-3-ol or (3R,4S)-1-(4-(5-isopropyl-8-(3-(methylsulfonylmethyl)azetidin-1-yl)isoquinolin-3-ylamino)pyrimidin-2-yl)-4-methoxypiperidin-3-ol] | ≤ 0.015 µM | ≤ 0.01 µM |  |
